The source of these data is patent US7652017B2, “Remedies and/or preventives for nervous system disorders” (Mitsubishi Tanabe Pharma Corporation, priority 1999, dated 2010).

Experiment [1] has as its target T1, sarcoplasmic reticulum calcium ion-ATPase (Canis lupus familiaris, UniProt O46674).
T1 construct: their hearts were isolated and the myocardium in post-ischemic region and non-ischemic region the left ventricles were collected; from tissue; host or cells: dog left-ventricle myocardium (post-ischemic and non-ischemic regions), sarcoplasmic reticulum fraction
As to the kind of experiment: Sarcoplasmic reticulum calcium ion-ATPase activity of myocardium fractions. It counts as biochemical, dog.

The nature of experiment [2]: Action on disturbance of passive avoidance behavior in rat (5-minute ischemia). It counts as in vivo. As to the method:
Bilateral vertebral arteries of Wister male rats weighing 250 to 300 g were electrically cauterized before 48 hours from ischemic induction to prepare rats showing no neurological symptom such as hemiplegia. Only vertebral arteries of rats were cauterized to prepare rats as sham operation group. Before 30 minutes from ischemic induction, 0.1 mg/kg-b.w. or 1 mg/kg-b.w. of 5-methyl-2-(1-piperazinyl)benzenesulfonic acid monohydrate suspended in distilled water was administered orally to the rat of drug administration group and the equivalent dose of distilled water was administered to the rat of control group. The experiment was conducted by using the apparatus consisting of the bright room (50×50×50 cm) with 100 W lamp and the dark room (20×14×20 cm). The rat electrically cauterized bilateral vertebral arteries was put in the bright room to count the transit time to the dark room. The transit time was identified the reaction latency in the acquisition trial.
The guillotine door was closed when the rat entered into the dark room and the rat was given electrical shock (2.9 mA, 5 seconds) from the floor grid to finish the acquisition trial.
Ischemia was inducted by 5-minutes' bilateral occlusion of the common carotid arteries under ether anesthesia. […] During ischemia and after recirculation, until recovery of righting reflex, the rats were put on the heating mat to maintain their body temperature. After 48 hours from recirculation, the retention trial was conducted. As the same manner as the acquisition trial, the rat put in the bright room had been observed for at most 300 seconds to count the transit time to the dark room (the reaction latency).
The action on disturbance of passive avoidance in rat was observed by the same method as Example 1 except for intravenously administering 0.03 mg/kg-b.w. or 0.3 mg/kg-b.w. of 5-n-propyl-2-(1-piperazinyl)benzenesulfonic acid suspended in distilled water instead of 5-methyl-2-(1-piperazinyl)benzenesulfonic acid monohydrate as a drug.

In experiment [3] the test system is hippocampus CA1 pyramidal cells. The experiment is described as follows: Action on delayed neuronal cell death in rat (10-minute forebrain ischemia). The experiment is classed as in vivo. As to the method:
Bilateral vertebral arteries of Wister male rats weighing 250 to 300 g were electrically cauterized before 24 hours from ischemic induction to prepare rats showing no neurological symptom such as hemiplegia. Only vertebral arteries of rats were cauterized to prepare rats as sham operation group. Before 30 minutes from ischemic induction, 0.1 mg/kg-b.w. or 1 mg/kg-b.w. of 5-methyl-2-(1-piperazinyl)benzenesulfonic acid monohydrate suspended in distilled water was administered orally to the rat of drug administration group and the equivalent dose of distilled water was administered to the rat of control group.
Ischemia was inducted by 10-minutes' bilateral occlusion of the common carotid arteries under ether anesthesia. […] During ischemia and after recirculation, until recovery of righting reflex, the rats were put on the heating mat to maintain their body temperature. After 72 hours from recirculation, the brain of the rat was fixed by perfusion with a fixative, FAM (formalin:acetic acid:methanol ▭1:1:8). After that, it was embedded by paraffin and a 5 μm thick slice of the forebrain was prepared in an usual manner Haematoxylin stain was conducted and the number of hippocampus CA1 pyramidal cells were counted to obtain the number of the cells per mm (neuronal density). The number of hippocampus CA1 pyramidal cells in sham operation group was 166.0±6.7. After 10 minutes ischemia induction, the number of hippocampus CA1 pyramidal cells in control group (distilled water administration group) was 31.2±13.3 and about 80% of total neuronal cells were led into degeneration and necrosis. The number of hippocampus CA1 pyramidal cells in 0.1 and 1 mg/kg 5-methyl-2-(1-piperazinyl)benzenesulfonic acid monohydrate oral administration group was 74.3±16.0 and 104.1±21.9, respectively. Both of them inhibited neuronal cell death dose-dependently and there is a significant difference between 1 mg/kg administration group and the control group.
The action on delayed neuronal cell death in rat was observed by the same method as Example 1 except for intravenously administering 0.03 mg/kg-b.w. or 0.3 mg/kg-b.w. of 5-n-propyl-2-(1-piperazinyl)benzenesulfonic acid suspended in distilled water instead of 5-methyl-2-(1-piperazinyl)benzenesulfonic acid monohydrate as a drug.

The test system of experiment [4] is ischemic/reperfused myocardium. The experiment is described as follows: Regional cardiac function (% SS) in ischemic/reperfused myocardium in dogs. It counts as in vivo, dog. Particulars: 3 μg/kg i.v. 5 minutes before reperfusion; 30-min LAD occlusion, 1 h reperfusion. As to the method:
The chest of mongrel dogs (adults, male and female) was opened under anesthesia with pentobarbital (30 mg/kg, i.v.) and a portion of the left coronary anterior descending (LAD) was dissected. A catheter-tip-pressure transducer (Millar; MPC-500) was inserted from the left carotid artery into the left ventricle to determine the left ventricular pressure and its first differential value (dP/dt). A pair of crystal probes were mounted in the LAD region to determine changes in regional segment length. Diastolic segment length (EDL; threshold point of dP/dt) and systolic segment length (ESL; dP/dt(−) max point) were determined from the waveform of dP/dt, and the regional segment shortening (% SS) in the ischemic/reperfused myocardium was calculated as follows: % SS=(EDL−ESL)/[…]×100
After hemodynamic stability is established following operation, the dissected portion of LAD was occluded for 30 minutes and then reperfused for 1 hour. At the same time, the cardiac function (% SS) in the above-described ischemic/reperfused region was continuously monitored throughout the protocol.
The animals were randomly grouped into two groups, one consisting of animals to be administered with 5-methyl-2-(1-piperazinyl)benzenesulfonic acid monohydrate (drug administration group; N=6) and the other of control group (N=6). […]

The subject of experiment [5] is papillary muscle of the right ventricle. The experiment is described as follows: Inhibition of the cardiotonic action of isoproterenol in isolated papillary muscle. On the set-up: species or system guinea-pig. As to conditions: Cavia porcellus, read-out: Inhibition (%) of developed tension increased by isoproterenol. As to the method: For the evaluation of the extent of inhibiting overaccumulation of intracellular calcium ions, inhibition of the cardiotonic action of isoproterenol by the compounds described in Table 1 and Table 2 as mentioned above was measured.
That is to say, since isoproterenol has been known to cause calcium ions overload by excessive calcium ions influx into cardiac myocytes (Fleckenstein A., Janke J., Doring H., Leder O.; Recent advances in Studies on cardiac structure and metabolism, Myocardial Biology, Vol. 4, pp. 563-580 (1974)), the compounds which inhibit the action of isoproterenol can inhibit intracellular calcium ions overload.
The papillary muscle of the right ventricle isolated from male Hartley guinea-pigs (body weight: 250 to 350 g) was suspended in an organ bath filled with a nutrient solution (Krebs-Henseleit solution). The temperature of the nutrient solution was maintained at 32° C., and the solution was aerated with a gas mixture of 95% oxygen and 5% carbon dioxide. The papillary muscle was applied with a resting tension of about 0.5 g, and stimulated with platinum electrodes by a rectangular pulse of a duration of 1 msec, a frequency of 1 Hz and a voltage higher by 15% than the threshold value. The developed tension of the papillary muscle was measured through a tension transducer and recorded with a polygraph system. After the preparation was stabilized for about 90 minutes, isoproterenol ( 10^−3 to 10^−7 M) was added into the organ bath so that developed tension could be increased by 100% or more, and at the point when the maximum response was obtained, the compounds of the present invention were added into the organ bath, and % inhibition of the developed tension increased by isoproterenol was measured.

T1 sequence (O46674 whole entry): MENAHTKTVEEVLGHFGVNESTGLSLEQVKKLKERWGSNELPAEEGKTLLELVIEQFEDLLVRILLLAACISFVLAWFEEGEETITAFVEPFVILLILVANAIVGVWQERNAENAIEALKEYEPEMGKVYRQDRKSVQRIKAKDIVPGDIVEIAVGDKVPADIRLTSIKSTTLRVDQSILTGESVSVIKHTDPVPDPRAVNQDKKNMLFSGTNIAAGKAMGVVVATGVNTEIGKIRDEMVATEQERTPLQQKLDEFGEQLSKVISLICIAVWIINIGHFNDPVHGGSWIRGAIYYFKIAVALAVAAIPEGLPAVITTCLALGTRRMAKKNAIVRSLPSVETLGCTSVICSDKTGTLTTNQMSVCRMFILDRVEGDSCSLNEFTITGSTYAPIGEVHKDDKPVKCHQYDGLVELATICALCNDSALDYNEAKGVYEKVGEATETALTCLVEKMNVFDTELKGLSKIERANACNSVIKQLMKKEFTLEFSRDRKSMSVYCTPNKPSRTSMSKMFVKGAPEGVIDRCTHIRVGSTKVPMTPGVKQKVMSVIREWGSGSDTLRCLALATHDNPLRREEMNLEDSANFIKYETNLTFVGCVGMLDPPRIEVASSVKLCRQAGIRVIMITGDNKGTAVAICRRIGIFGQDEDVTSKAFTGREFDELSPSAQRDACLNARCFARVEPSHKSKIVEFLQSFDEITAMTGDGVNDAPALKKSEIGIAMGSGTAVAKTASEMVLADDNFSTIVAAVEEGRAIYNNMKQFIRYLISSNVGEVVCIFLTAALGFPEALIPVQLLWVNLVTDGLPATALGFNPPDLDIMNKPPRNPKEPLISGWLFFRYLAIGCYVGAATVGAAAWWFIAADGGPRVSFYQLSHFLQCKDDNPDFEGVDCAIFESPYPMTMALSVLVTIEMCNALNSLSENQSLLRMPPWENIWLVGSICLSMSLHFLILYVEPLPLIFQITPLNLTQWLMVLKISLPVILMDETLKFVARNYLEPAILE

As for `Cc1ccc(N2CCNCC2)c(S(=O)(=O)O)c1.O` [5-methyl-2-(1-piperazinyl)benzenesulfonic acid monohydrate], the “calcium ion-ATPase activity of sarcoplasmic reticulum, post-ischemic region” value in experiment [1] (calcium ion concentration 10 μM, dogs given 3 μg/kg i.v. before reperfusion, control 0.070±0.004, P<0.05) came to 0.090±0.008 μmol Pi/mg min. Besides, the “calcium ion-ATPase activity of sarcoplasmic reticulum, non-ischemic region” value in experiment [1] (calcium ion concentration 10 μM, dogs given 3 μg/kg i.v. before reperfusion, control 0.089±0.009, no significant difference) is given as 0.088±0.006 μmol Pi/mg min. For the same molecule, the “reaction latency in the retention trial” value in experiment [2] (0.1 mg/kg oral, 48 h after 5-min ischemia, control 71.4±29.4, sham 206.1±29.4) amounted to 97.7 ± 31.2 s; in experiment [2] (1 mg/kg oral, 48 h after 5-min ischemia, control 71.4±29.4, sham 206.1±29.4) it was 139.0 ± 27.5 s. Also, the “number of hippocampus CA1 pyramidal cells (neuronal density)” value is 74.3±16.0 per mm in experiment [3] (0.1 mg/kg oral 30 min before 10-min ischemia, 72 h after recirculation, control 31.2±13.3, sham 166.0±6.7) and 104.1±21.9 per mm in experiment [3] (1 mg/kg oral 30 min before 10-min ischemia, 72 h after recirculation, P<0.05 vs control 31.2±13.3). Moreover, the “regional cardiac function (% SS) in post-reperfusion region compared to control group” value in experiment [4] is recorded as “significantly improved”.

With `Cc1ccc(N2CCNCC2)c(S(=O)(=O)O)c1` [Compound 12, 5-methyl-2-(1-piperazinyl)benzenesulfonic acid], the inhibition at 1000 µM in experiment [5] (drug concentration 10^−3 M) is 18.5%.

In the case of `CCCc1ccc(N2CCNCC2)c(S(=O)(=O)O)c1` [Compound 14, 5-n-propyl-2-(1-piperazinyl)benzenesulfonic acid], the “reaction latency in the retention trial” value was 253.4 ± 25.6 s in experiment [2] (0.03 mg/kg intravenous, 5-min ischemia, P<0.001, control 88.2±18.1, sham 243.5±31.6) and 187.2 ± 36.1 s in experiment [2] (0.3 mg/kg intravenous, 5-min ischemia, P<0.05, control 88.2±18.1, sham 243.5±31.6). Further, the “reaction latency in the acquisition trial” value in experiment [2] (every group (0.03 and 0.3 mg/kg intravenous, control, sham), no significant difference) is “about 20 seconds”. Also, the “number of hippocampus CA1 pyramidal cells (neuronal density)” value in experiment [3] (0.03 mg/kg, P<0.01, control 71.3±10.3, sham 177.8±5.3) is 125.1±5.7 per mm; in experiment [3] (0.3 mg/kg, P<0.05, control 71.3±10.3, sham 177.8±5.3) it was 131.9±9.9 per mm. Moreover, in experiment [5] (drug concentration 10^−4 M), the inhibition at 100 µM was 19.2%. For the same molecule, the inhibition at 10 µM in experiment [5] (drug concentration 10^−5 M) is 10.4%.

In the case of `C/C=C(/C)C(=O)O[C@H]1C(C)=C2[C@H]([C@@H]1OC(=O)CCCCCCC)[C@@](C)(OC(C)=O)C[C@H](OC(=O)CCC)[C@@]1(O)[C@H]2OC(=O)[C@@]1(C)O` [Thapsigargin, reference compound], the “inhibition of sarcoplasmic reticulum calcium ion-ATPase activity” value in experiment [1] (1 μM added in vitro) is on record as “completely inhibited”.
